Structures are written as SMILES. Several values for one entry are separate records, joined by “and”; a condition that tells them apart may be missing. Equal entries are not always repeated. Some results are limits rather than exact numbers.

Sequence of wild-type Epidermal Growth Factor Receptor (EGFR) (P00533 669-1210): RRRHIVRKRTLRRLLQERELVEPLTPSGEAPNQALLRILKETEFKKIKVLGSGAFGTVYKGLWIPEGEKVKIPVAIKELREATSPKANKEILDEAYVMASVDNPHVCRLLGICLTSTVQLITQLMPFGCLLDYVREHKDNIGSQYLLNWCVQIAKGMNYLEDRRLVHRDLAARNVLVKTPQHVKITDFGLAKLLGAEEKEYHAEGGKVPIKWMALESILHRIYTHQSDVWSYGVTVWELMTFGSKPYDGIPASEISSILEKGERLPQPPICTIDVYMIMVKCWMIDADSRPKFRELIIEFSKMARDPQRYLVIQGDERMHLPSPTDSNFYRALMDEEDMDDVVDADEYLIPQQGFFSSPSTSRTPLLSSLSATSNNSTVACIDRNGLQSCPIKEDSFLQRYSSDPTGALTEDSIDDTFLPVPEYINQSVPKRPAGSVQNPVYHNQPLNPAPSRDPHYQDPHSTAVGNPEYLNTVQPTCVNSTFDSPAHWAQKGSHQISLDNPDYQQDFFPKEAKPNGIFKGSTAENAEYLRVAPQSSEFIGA

The target of the test is wild-type Epidermal Growth Factor Receptor (EGFR) (Homo sapiens (Human), UniProt P00533). Briefly: WT-EGFR kinase assay (TR-FRET, 2 mM ATP). The class given is biochemical. To be noted: median or individual measurements, Table 3, read-out: EGFR Wildtyp-2mM ATP IC50 [mol/l] (median). The text has this:
Inhibitory activity of compounds of the present invention against wild-type Epidermal Growth Factor Receptor (EGFR) was quantified employing the TR-FRET based EGFR assay as described in the following paragraphs.
Recombinant fusion protein of N-terminal Glutathion-S-Transferase (GST) and a fragment of human EGFR (amino acids R669 to A1210), expressed in Sf9 insect cells and purified via affinity chromatography using Glutathion Sepharose as described above, was used as kinase. As substrate for the kinase reaction the biotinylated peptide biotin-Ahx-AEEEEYFELVAKKK (C-terminus in amide form) was used which can be purchased e.g. form the company Biosynthan GmbH (Berlin-Buch, Germany).
For the assay 50 nl of a 100 fold concentrated solution of the test compound in DMSO was pipetted into either a black low volume 384 well microtiter plate or a black 1536 well microtiter plate (both Greiner Bio-One, Frickenhausen, Germany), 2 μL of a solution of EGFR in aqueous assay buffer [50 mM Hepes pH 7.0, 10 mM MgCl2, 1 mM dithiothreitol, 0.5 mM EGTA, 0.3 mM activated sodium ortho-vanadate, 0.005% (w/v) bovine serum albumin, 0.005% (v/v) Tween-20] were added and the mixture was incubated for 15 min at 22° C. to allow pre-binding of the test compounds to the enzyme before the start of the kinase reaction. Then the kinase reaction was started by the addition of 3 μL of a solution of adenosine-tri-phosphate (ATP, 3.33 mM=>final conc. in the 5 μL assay volume is 2 mM) and substrate (1.67 μM=>final conc. in the 5 μL assay volume is 1 μM) in assay buffer and the resulting mixture was incubated for a reaction time of 30 min at 22° C. The concentration of EGFR was adjusted depending of the activity of the enzyme lot and was chosen appropriate to have the assay in the linear range, typical concentration was 7.6 pg/μL. The reaction was stopped by the addition of 3 μL of a solution of HTRF detection reagents (83.3 nM streptavidine-XL665 [Cisbio Bioassays, Codolet, France] and 1.67 nM PT66-Tb-Cryptate, a terbium-cryptate labelled anti-phospho-tyrosine antibody from Cisbio Bioassays [instead of the PT66-Tb-cryptate PT66-Eu-Chelate from Perkin Elmer can also be used]) in an aqueous EDTA-solution (133.3 mM EDTA, 0.2% (w/v) bovine serum albumin in 50 mM HEPES pH 7.5).
The resulting mixture was incubated 1 h at 22° C. to allow the binding of the biotinylated phosphorylated peptide to the streptavidine-XL665 and the PT66-Tb-Cryptate. Subsequently the amount of phosphorylated substrate was evaluated by measurement of the resonance energy transfer from the PT66-Tb-Cryptate to the streptavidine-XL665. Therefore, the fluorescence emissions at 620 nm and 665 nm after excitation at 337 nm were measured in a HTRF reader, e.g. a Pherastar (BMG Labtechnologies, Offenburg, Germany) or a Viewlux (Perkin-Elmer). The ratio of the emissions at 665 nm and at […] was taken as the measure for the amount of phosphorylated substrate. The data were normalised (enzyme reaction without inhibitor=0% inhibition, all other assay components but no enzyme=100% inhibition).
Regarding `CN1CC(CC(F)(F)F)c2[nH]c(-c3ccnc(NC(=O)Cc4ccc(F)cc4)c3)c(Nc3ccccc3)c2C1=O` (single isomer, unassigned) [Example 15, N-{4-[3-anilino-5-methyl-4-oxo-7-(2,2,2-trifluoroethyl)-4,5,6,7-tetrahydro-1H-pyrrolo[3,2-c]pyridin-2-yl]pyridin-2-yl}-2-(4-fluorophenyl)acetamide], the IC50 came to 2900 nM.

For `CN1CC(CC2CC2)c2[nH]c(-c3ccnc(NC(=O)Cc4ccc(F)cc4)c3)c(Nc3cscn3)c2C1=O` (single isomer, unassigned) [Example 51, N-{4-[(7R or S)-7-(cyclopropylmethyl)-5-methyl-4-oxo-3-(1,3-thiazol-4-ylamino)-4,5,6,7-tetrahydro-1H-pyrrolo[3,2-c]pyridin-2-yl]pyridin-2-yl}-2-(4-fluorophenyl)acetamide], the IC50 was 17200 nM and > 20000 nM.

As to `O=C1N[C@@H]2CCC[C@@H]2c2[nH]c(-c3ccnc(NC(=O)C(CC(F)F)c4ccc(F)cc4)c3)c(Nc3ccccc3)c21` (single isomer, unassigned; (-)) [Example 23, (−)-(2R or S)—N-{4-[cis-3-anilino-4-oxo-1,4,5,5a,6,7,8,8a-octahydrocyclopenta[b]pyrrolo[2,3-d]pyridin-2-yl]pyridin-2-yl}-4,4-difluoro-2-(4-fluorophenyl)butanamide], the IC50 is 13000 nM.

As for `Cn1ccc2[nH]c(-c3ccnc(NC(=O)C(CC(F)F)c4ccc(F)cc4)c3)c(Nc3ccccc3)c2c1=O` (racemic) [Example 28, N-[4-(3-anilino-5-methyl-4-oxo-4,5-dihydro-1H-pyrrolo[3,2-c]pyridin-2-yl)pyridin-2-yl]-4,4-difluoro-2-(4-fluorophenyl)butanamide], the IC50 amounted to 12000 nM.

For the molecule `C[C@H](C(=O)Nc1cc(-c2[nH]c3ccn(C)c(=O)c3c2Nc2ccccc2)ccn1)c1ccc(F)cc1` (single isomer, unassigned) [Example 26], the IC50 was greater than 20000 nM.

With `O=C1N[C@@H]2CCC[C@@H]2c2[nH]c(-c3ccnc(NC(=O)C(CC(F)F)c4ccc(F)cc4)c3)c(Nc3ccccc3)c21` (single isomer, unassigned; (-)) [Example 24, (−)-(2R or S)—N-{4-[cis-3-anilino-4-oxo-1,4,5,5a,6,7,8,8a-octahydrocyclopenta[b]pyrrolo[2,3-d]pyridin-2-yl]pyridin-2-yl}-4,4-difluoro-2-(4-fluorophenyl)butanamide], the IC50 was found to be 310 nM.

Consider `CCC1CNC(=O)c2c1[nH]c(-c1ccnc(NC(=O)Cc3ccc(F)cc3)c1)c2Nc1ccccc1` (racemic) [Example 1, N-{4-[3-anilino-7-ethyl-4-oxo-4,5,6,7-tetrahydro-1H-pyrrolo[3,2-c]pyridin-2-yl]pyridin-2-yl}-2-(4-fluorophenyl)acetamide], for which the IC50 is 57 nM.

Turning to `CN1CC(CC(F)(F)F)c2[nH]c(-c3ccnc(NC(=O)C(CC(F)F)c4ccc(F)cc4)c3)c(Nc3cscn3)c2C1=O` (racemic) [Example 52, (2RS)-4,4-difluoro-2-(4-fluorophenyl)-N-{4-[(7RS)-5-methyl-4-oxo-3-[(1,3-thiazol-4-yl)amino]-7-(2,2,2-trifluoroethyl)-4,5,6,7-tetrahydro-1H-pyrrolo[3,2-c]pyridin-2-yl]pyridin-2-yl}butanamide], the IC50 is greater than 20000 nM.

With `CN1CC(CC(F)F)c2[nH]c(-c3ccnc(NC(=O)Cc4ccc(F)cc4)c3)c(Nc3ccccc3)c2C1=O` (single isomer, unassigned) [Example 43, N-{4-[3-anilino-7-(2,2-difluoroethyl)-5-methyl-4-oxo-4,5,6,7-tetrahydro-1H-pyrrolo[3,2-c]pyridin-2-yl]pyridin-2-yl}-2-(4-fluorophenyl)acetamide], the IC50 was 410 nM.

Turning to `Cc1cn(C)c(=O)c2c(Nc3ccccc3)c(-c3ccnc(NC(=O)C(CC(F)F)c4ccc(F)cc4)c3)[nH]c12` (single isomer, unassigned) [Example 13, N-[4-(3-anilino-5,7-dimethyl-4-oxo-4,5-dihydro-1H-pyrrolo[3,2-c]pyridin-2-yl)pyridin-2-yl]-4,4-difluoro-2-(4-fluorophenyl)butanamide], the IC50 is greater than 20000 nM.

As to `CN1CC(CC(F)(F)F)c2[nH]c(-c3ccnc(NC(=O)Cc4ccc(F)cc4)c3)c(Nc3cscn3)c2C1=O` (single isomer, unassigned) [Example 47, 2-(4-fluorophenyl)-N-{4-[(7R or S)-5-methyl-4-oxo-3-(1,3-thiazol-4-ylamino)-7-(2,2,2-trifluoroethyl)-4,5,6,7-tetrahydro-1H-pyrrolo[3,2-c]pyridin-2-yl]pyridin-2-yl}acetamide], the IC50 is greater than 20000 nM.

As to `CN1CC(CC(F)F)c2[nH]c(-c3ccnc(NC(=O)Cc4ccc(F)cc4)c3)c(Nc3ccccc3)c2C1=O` (racemic) [Example 42, N-{4-[3-anilino-7-(2,2-difluoroethyl)-5-methyl-4-oxo-4,5,6,7-tetrahydro-1H-pyrrolo[3,2-c]pyridin-2-yl]pyridin-2-yl}-2-(4-fluorophenyl)acetamide], the IC50 was 1100 nM.

For `Cn1cc(CC2CC2)c2[nH]c(-c3ccnc(NC(=O)Cc4ccc(F)cc4)c3)c(Nc3ccccc3)c2c1=O` [Example 32, N-{4-[3-anilino-7-(cyclopropylmethyl)-5-methyl-4-oxo-4,5-dihydro-1H-pyrrolo[3,2-c]pyridin-2-yl]pyridin-2-yl}-2-(4-fluorophenyl)acetamide], the IC50 was determined as 860 nM.

For `Cn1cc(CC(F)(F)F)c2[nH]c(-c3ccnc(NC(=O)Cc4ccc(F)cc4)c3)c(Nc3ccccc3)c2c1=O` [Example 34, N-{4-[3-anilino-5-methyl-4-oxo-7-(2,2,2-trifluoroethyl)-4,5-dihydro-1H-pyrrolo[3,2-c]pyridin-2-yl]pyridin-2-yl}-2-(4-fluorophenyl)acetamide], the IC50 worked out at 20 nM.

In the case of `O=C1N[C@@H]2CCC[C@@H]2c2[nH]c(-c3ccnc(NC(=O)C(CC(F)F)c4ccc(F)cc4)c3)c(Nc3ccccc3)c21` (mixture of isomers) [Example 21, (2RS)—N-{4-[cis-3-anilino-4-oxo-1,4,5,5a,6,7,8,8a-octahydrocyclopenta[b]pyrrolo[2,3-d]pyridin-2-yl]pyridin-2-yl}-4,4-difluoro-2-(4-fluorophenyl)butanamide], the IC50 is 4500 nM.

Consider `CN1CC(CC(F)F)c2[nH]c(-c3ccnc(NC(=O)Cc4ccc(F)cc4)c3)c(Nc3ccccc3)c2C1=O` (single isomer, unassigned) [Example 44, N-{4-[3-anilino-7-(2,2-difluoroethyl)-5-methyl-4-oxo-4,5,6,7-tetrahydro-1H-pyrrolo[3,2-c]pyridin-2-yl]pyridin-2-yl}-2-(4-fluorophenyl)acetamide], for which the IC50 was 490 nM.

Take `Cn1cc(CC(F)(F)F)c2[nH]c(-c3ccnc(NC(=O)C(CC(F)F)c4ccc(F)cc4)c3)c(Nc3ccccc3)c2c1=O` (single isomer, unassigned) [Example 36, N-{4-[3-anilino-5-methyl-4-oxo-7-(2,2,2-trifluoroethyl)-4,5-dihydro-1H-pyrrolo[3,2-c]pyridin-2-yl]pyridin-2-yl}-4,4-difluoro-2-(4-fluorophenyl)butanamide]: the IC50 came out at 1100 nM.

Take `CN1CC(CC(F)(F)F)c2[nH]c(-c3ccnc(NC(=O)Cc4ccc(F)cc4)c3)c(Nc3ccccc3)c2C1=O` (single isomer, unassigned) [Example 16, N-{4-[3-anilino-5-methyl-4-oxo-7-(2,2,2-trifluoroethyl)-4,5,6,7-tetrahydro-1H-pyrrolo[3,2-c]pyridin-2-yl]pyridin-2-yl}-2-(4-fluorophenyl)acetamide]: the IC50 was determined as 1800 nM.

For the molecule `Cn1cc(CC(F)(F)F)c2[nH]c(-c3ccnc(NC(=O)C(CC(F)F)c4ccc(F)cc4)c3)c(Nc3ccccc3)c2c1=O` (single isomer, unassigned) [Example 37, N-{4-[3-anilino-5-methyl-4-oxo-7-(2,2,2-trifluoroethyl)-4,5-dihydro-1H-pyrrolo[3,2-c]pyridin-2-yl]pyridin-2-yl}-4,4-difluoro-2-(4-fluorophenyl)butanamide], the IC50 is 120 nM.

Source of the values: patent US20230365554A1, “SUBSTITUTED PYRROLO-PYRIDINONE DERIVATIVES AND THERAPEUTIC USES THEREOF” (The Broad Institute, Inc., priority 2020, published 2023).
